System: 1143 mel tumor cells
Test: Migration assay (matrigel)
Assay type: cell-based, human
Conditions: 1143 mel cells stably expressing the construct, 48 h
Experimental: 2.5×10^4 1143 mel tumor cells and transfected tumor cells were seeded into the upper chamber with 0.75 ml of RPMI-1640 serum-free medium in BIOCOAT […] Cells (Becton Dickinson, San Jose, Calif.). The bottom chamber contained 0.75 ml of RPMI-1640 serum-free medium (control medium) or 0.75 ml of RPMI-1640/10% FCS (complete medium). After incubation at 37° C. and 5% CO2 for 48 h, Cells in the lower chambers were fixed in 4% formaldehyde in PBS at room temperature for 20 min, stained with crystal violet, and examined and counted from four different fields under a compound microscope.
The migratory ability of these cell lines expressing wild type or mutant FN was further evaluated. […] To rule out clonal variation, similar experiments were repeated with four sets of independent tumor cell clones expressing either wild-type, mutant FN or empty vector. […] The P-value for significant difference is 0.0007 among the two comparison groups of cell clones expressing mutant FN and other cell clones expressing either wild-type FN, empty vector. There were no statistically significant differences among groups of parental 1143 mel and its derivative clones expressing wild-type or empty vector.

Row | Substance | migration from chamber with control medium to chamber with complete medium
1 | mutant FN: mutated fibronectin with Glu to Lys substitution at position 2053 | enhanced migration ability
2 | wild-type FN: wild-type fibronectin | little or no migration
